Measured values reported in paper PMC5732813, “Novel piplartine-containing ruthenium complexes: synthesis, cell growth inhibition, apoptosis induction and ROS production on HCT116 cells” (Oncotarget, 2017).

Key:
[1] = test system: BAD KO SV40 MEF (BAD gene knockout immortalized mouse embryonic fibroblast); test: Cytotoxic activity, alamar blue assay, BAD KO SV40 MEF; type: cell-based; conditions: Mus musculus, Fibroblast; BAD KO SV40 MEF, 72 h incubation, alamar blue; read-out: IC50
Text: (§1) HCT116 (human colon carcinoma), HepG2 (human hepatocellular carcinoma), HSC-3 (human oral squamous cell carcinoma), SCC-4 (human oral squamous cell carcinoma), SCC-9 (human oral squamous cell carcinoma), HL-60 (human promyelocytic leukemia), K-562 (human chronic myelogenous leukemia), B16-F10 (murine melanoma), MRC-5 (human lung fibroblast), WT SV40 MEF (wild-type immortalized mouse embryonic fibroblast) and BAD KO SV40 MEF (BAD gene knockout immortalized mouse embryonic fibroblast) cell lines were obtained from the American Type Culture Collection (ATCC, Manassas, VA, USA) and cultured in RPMI-1640 medium (Gibco-BRL, Gaithersburg, MD, USA) with 10% fetal bovine serum (Life, Carlsbad, CA, USA), 2 mM L-glutamine (Vetec Química Fina, Duque de Caxias, RJ, Brazil) and 50 μg/mL gentamycin (Life, Carlsbad, CA, USA). Adherent cells were collected by treatment with 0.25% trypsin EDTA solution (Gibco-BRL, Gaithersburg, MD, USA). All cell lines were cultured in flasks at 37°C in 5% CO2 and sub-cultured every 3-4 days to maintain exponential growth.
(§2) Cell viability was quantified using the alamar blue assay, according to Ahmed et al.. Cells were inserted in 96-well plates for all experiments (7 x 10^4 cells/mL for adherent cells or 3 x 10^5 cells/mL for suspended cells in 100 μL of medium). […] Negative controls received the vehicle that was used for diluting the compounds tested.

[2] = test system: WT SV40 MEF (wild-type immortalized mouse embryonic fibroblast); test: Cytotoxic activity, alamar blue assay, WT SV40 MEF; type: cell-based; conditions: Mus musculus, Fibroblast; WT SV40 MEF, 72 h incubation, alamar blue; read-out: IC50
Text: as §1, §2

[3] = test system: HCT116 cells; test: Internucleosomal DNA fragmentation and cell cycle distribution (DNA content, flow cytometry); type: cell-based, human; conditions: HCT116, 3 μM, mean ± S.E.M.
Experimental: Cells were harvested in a permeabilization solution containing 0.1% triton X-100 (Sigma Chemical Co. St Louis, MO, USA), 2 μg/mL propidium iodide (Sigma Chemical Co. St Louis, MO, USA), 0.1% sodium citrate and 100 μg/mL RNAse (Sigma Chemical Co. St Louis, MO, USA) and incubated in the dark for 15 min at room temperature.

[4] = test system: cancer multicellular spheroids formed from HCT116 cells; test: 3D multicellular spheroids culture, alamar blue assay; type: cell-based, human; conditions: 3D spheroids of HCT116, 72 h treatment, alamar blue; read-out: IC50
Experimental: as §2
HCT116 cells were cultivated in 3D multicellular spheroids. Briefly, 100 μL of a solution of cells (0.5 x 10^6 cells/mL) were inserted in 96-well plate with a cell-repellent surface (Greiner Bio-One, Kremsmünster, Austria) and cultured in RPMI 1640 medium with 10% fetal bovine serum, 2 mM glutamine, 3% matrigel (BD Biosciences, San Jose, CA, EUA) and 50 μg/mL gentamycin at 37°C with 5% CO2. […] Negative control received the vehicle that was used for diluting the compounds tested. In the end of the experiment, morphological changes were examined by light microscopy (Olympus BX41, Tokyo, Japan) using Image-Pro software (Media Cybernetics, Inc. Silver Spring, USA) and the cell viability was determined by alamar blue assay as described above.

[5] = test system: MRC-5 (human lung fibroblast); test: Cytotoxic activity, alamar blue assay, MRC-5 non-cancer cells; type: cell-based; conditions: MRC-5 non-cancer cells, 72h of incubation, alamar blue; with 95% confidence interval; read-out: IC50
Text: as §1, §2

[6] = test system: PBMC (human peripheral blood mononuclear cells); test: Cytotoxic activity, alamar blue assay, PBMC non-cancer cells; type: cell-based; conditions: PBMC non-cancer cells, 72h of incubation, alamar blue; with 95% confidence interval; read-out: IC50
Experimental: PBMCs were washed and resuspended at a concentration of 3 x 10^5 cells/mL in RPMI 1640 medium with 20% fetal bovine serum, 2 mM glutamine and 50 μg/mL gentamycin at 37°C with 5% CO2. […] The Research Ethics Committee of the Oswaldo Cruz Foundation (Salvador, Bahia, Brazil) approved the experimental protocol (# 031019/2013). All participants signed a written informed consent to participate in the study.
as §2

[7] = test system: HL-60 (human promyelocytic leukemia); test: Cytotoxic activity, alamar blue assay, HL-60; type: cell-based; conditions: HL-60, 72h of incubation, alamar blue; with 95% confidence interval
Text: as §1, §2

[8] = test system: SCC-4 (human oral squamous cell carcinoma); test: Cytotoxic activity, alamar blue assay, SCC-4; type: cell-based; conditions: SCC-4, 72h of incubation, alamar blue; with 95% confidence interval
Text: as §1, §2

O=c1[nH]cc(F)c(=O)[nH]1 [5-fluorouracil]
IC50 [1]: 7.3 µM | IC50 [2]: 1.7 µM

O=C1[O][Pt]2([NH][C@@H]3CCCC[C@H]3[NH]2)[O]C1=O [Oxaliplatin]
DNA content (%) S ([3]; 24h): 16.9 ± 2.0% | DNA content (%) S ([3]; 48h): 17.4 ± 1.9% | IC50 [4]: 9.3 µM | IC50 [5]: 1.3 µM | IC50 [6]: 9.4 µM | IC50 [7]: 0.6 µM | IC50 [8]: 7.7 µM
